Our source for the melting point values is a melting point compilation (Tetko et al.; mined from patent text by program, amines drawn as free bases though some values may be those of a salt).

What is called melting point is the temperature, or range, at which the solid turns liquid.

As for `CCN(CC)C(=O)[C@H]1C[C@H](C(=O)OC(C)(C)C)N(C(=O)CNC(=O)Nc2cccc(C(=O)O)c2)[C@@H]1c1ccccc1F` (racemic), the melting point was found to be 150 °C. Turning to `COC(=O)COc1ccccc1C1C(C(=O)OC)=C(C)NC(C)=C1C(=O)OC`, the melting point was 153 to 155 °C. `O=c1[nH]c2ccc(S(=O)(=O)N(CCO)CCO)cc2[nH]c1=O` came in with a melting point of 272 to 276 °C.

For `CCCC(=NOCC)C1=C(O)CC(c2c(C)c(C)c(C)c3c2OCC3)CC1=O` (configuration not stated), the melting point worked out at 108 °C.

For `Cn1c(C(F)(F)F)nn(-c2ccccc2N)c1=O`, the melting point is 101 °C. `COc1cnn(-c2cc(Cl)cc(Cl)c2)c(=O)n1` had a melting point of 164 °C. Next, `O=C1NC(c2ccccc2)=N/C1=C\c1c[nH]c2ncc(Cl)cc12`: 250 °C; `Oc1ccc(Oc2cccc(-c3c(Cc4ccccc4)cnc4c(C(F)(F)F)cccc34)c2)cc1`: 55 to 60 °C.

`CC(=O)c1[nH]c2cc(Cl)cc(Cl)c2c1C` registered a melting point of 178 °C. The compound `c1ccc(CN2CCC(Cc3nc4ccccc4[nH]3)CC2)cc1` had a melting point of 222 °C. Next, `CN1Cc2c(ccc(F)c2Cl)-n2c(c(C#CC(C)(C)O)[nH]c2=O)C1`: 208 to 209 °C; `COCCOCn1c(Cl)c(C=O)c2ccccc21`: 52.5 to 54 °C; `COc1cc(C=O)cc(OC)c1C(C)(C)O`: 55 °C. Compound `Oc1ccc(-c2nc3cc(O)cc(C(Br)CBr)c3o2)cc1` (configuration not stated) registered a melting point of 175 to 177 °C.

`O=[N+]([O-])C=CC1=CCN(c2ccccc2)N1` displayed a melting point of 150 °C.

Regarding `Cc1c(NC(=O)c2ccc(OCC3CC3)cc2)ccc2[nH]c(CNC3CCCC3)cc12`, the melting point lay in the range of 207 to 208 °C.

In the case of `CC(C)CC(=O)Nc1cccc(-c2ccnc3c(-c4cccc(N)c4)cnn23)c1`, the melting point lay within 173 to 175 °C.

On to `CCOC(=O)CC(=O)c1ccc(Br)c(OC)c1F`, for which the melting point is 52 to 53 °C. `O=C(c1cccs1)c1cnn2c(-c3cccc(-c4nnn[nH]4)c3)ccnc12` had a melting point of 290 °C. `O=C1c2c(O)ccc(O)c2C(=O)c2c(NCCN3CCCC3CO)ccc(NCCN3CCCC3CO)c21` (configuration not stated) gave a melting point of 202 to 204 °C.

`CC(C)c1ccn2nc(S(=O)(=O)Cl)nc2n1`: the melting point fell in the range of 60 to 62 °C.

For `Nc1c2c(nc3ccccc13)CCCC2N1CCOCC1` (configuration not stated), the melting point lay in the range of 215 to 217 °C. `CC(=O)OCS(=O)(=O)C1=CCC2C3CCC4=CC(=O)C=CC4(C)C3(F)C(O)CC12C` (configuration not stated) displayed a melting point of 186 to 187 °C. In turn, `Cn1cncc1C(c1ccc(Cl)cc1)c1ccc2c(c1)c(-c1nc(-c3ccccc3)cs1)cc(=O)n2C` (configuration not stated) came in with a melting point of 171 °C. `CC(C)CN(C)c1cc(F)cc(C(=O)Nc2ccc(OCCN3CCOCC3)c3ccccc23)c1` registered a melting point of 126 to 128 °C. Turning to `O=C(OCC(F)(F)F)C(O)C(O)C(=O)OCC(F)(F)F` (configuration not stated), the melting point fell in the range of 77 to 79 °C. `CCOC(=O)c1cc2n(C)c3ccc(C)cc3c(=O)n2n1` yielded a melting point of 250 to 252 °C. As to `CC1CCN(c2cc3nc(C(C)(C)C)sc3cc2NC(=S)N2CCN(C)CC2)CC1`, the melting point was in the range of 192 to 195 °C. Take `CCCN(CCC)C1CCc2cccc(-c3ccc4ccccc4n3)c2C1` (configuration not stated): the melting point is 82 °C. In the case of `CCCCCCC#Cc1csc(C=O)c1`, the melting point was determined as 2 °C. Next, `Cc1oc(-c2ccccc2)nc1COc1cccc(CCl)c1`: 79 to 80 °C; `CS(=O)(=O)Oc1ccccc1C(=O)O`: 125 to 126 °C; `C[C@]1(COc2ccc(N3CCC(N4CCN(c5ccc(OC(F)(F)F)cc5)CC4)CC3)cc2)Cn2cc([N+](=O)[O-])nc2O1`: 279 to 281 °C. On to `CN(C)CC1Cc2ccc(NC(=O)c3ccc(-c4ccc(Cl)cc4)cc3)cc2C1` (configuration not stated), for which the melting point was 192 to 194 °C. In turn, `O=c1[nH]c2ncc(-c3ccc(O)cc3)nc2n1C1CCCCC1` had a melting point of 318 to 320 °C. To `COc1ccc2[nH]c(S(=O)Cc3nccc(N(C)C)c3F)nc2c1` (configuration not stated) belongs 145 to 147 °C; to `CC1(C)CC(=O)c2c(nc(C3CCCC3)c(C(=O)c3ccc(C(F)(F)F)cc3)c2-c2ccsc2)C1`, 236 to 238 °C. The compound `Cc1c(NC(=O)c2ccc(-c3ccc(F)cc3)c(F)c2)ccc2cc(CN3CCCCCC3)cnc12` yielded a melting point of 162 to 163 °C. For the compound `Cc1cc(CSCCC(=C(N)NCCc2cccc(O)c2)[N+](=O)[O-])sc1CN(C)C`, the melting point was 114 to 115 °C.

In turn, `COc1ccc(Cc2cc3cc(C#N)ccc3o2)cc1` returned a melting point of 78 to 80 °C. As for `CCOc1cc(CF)nc2nc(S(=O)(=O)Nc3c(Cl)ccc(C)c3Cl)nn12`, the melting point lay in the range of 197 to 200 °C. `O=C1c2cccc3cc4ccccc4c(c23)C(=O)N1CCNCCNCCN1C(=O)c2cccc3cc4ccccc4c(c23)C1=O` registered a melting point of 203 °C. Take `O=C(O)c1cc(OCc2ccccc2)nc(OCc2ccccc2)c1`: the melting point fell in the range of 145 to 147 °C. As for `Cc1c(C)c(N2CCN(c3ccc(F)cc3)CC2)c(C)c2c1OC(C)C2` (configuration not stated), the melting point was 137 to 138 °C. To `COC(=O)C=CC=Cc1cc([N+](=O)[O-])ccc1Cl` belongs 132 °C; to `O=C1CC(c2ccccc2)Cc2[nH]c3c(c21)CCCC3` (configuration not stated), 257 to 259 °C. In the case of `O=C(O)Cc1ccc(NC(=O)c2ccccc2SSc2ccccc2C(=O)Nc2ccc(CC(=O)O)cc2)cc1`, the melting point lay in the range of 257 to 260 °C.

Consider `CS(=O)(=O)c1ccc(-c2[nH]c3ccccc3c2-c2ccccc2)cc1`, for which the melting point lay within 221 to 222 °C. For `CC(C)(ON=C(C(=O)O)c1ccco1)C(N)=O`, the melting point lay in the range of 160 to 162 °C.

Compound `O=[N+]([O-])c1ccc2nc3c(nc2c1)OCC1CCCN31` (configuration not stated) came in with a melting point of 234 to 237 °C.

The compound `CCCC/C(=C\C(=O)O)c1cc(OC)c(O)c2c(CC)cccc12` came in with a melting point of 139 to 140 °C. In the case of `C=C(CC(Cl)(Cl)Cl)c1cnc(Cl)c(Cl)c1`, the melting point was in the range of 76 to 77 °C. Take `O=c1[nH]c(Cl)c(Cc2ccccc2)c(=O)n1Cc1ccccc1`: the melting point lay within 146 to 148 °C. The compound `COC(=O)c1ccc(Cn2c(C(=O)Nc3nc(-c4cc(OC)c(Cl)cc4OC)c(CCC4CCCCC4)s3)cc3cc(C)cc(C)c32)cc1` displayed a melting point of 199 to 200 °C.

As to `O=C1Nc2ccc(Cl)cc2CN2CCCC12` (configuration not stated), the melting point is 97 to 99 °C.

For `Cc1cc(-c2ccc(C(F)(F)F)nc2)nc(-c2cccc(-c3cccc(S(N)(=O)=O)c3)n2)n1`, the melting point is 254 °C. On to `O=C(O)COc1c(Br)cc2oc(C(=O)c3ccccc3)cc2c1Br`, for which the melting point lay in the range of 179 to 181 °C. With `C#CCN1C(=O)COc2ccc(N)cc21`, the melting point was in the range of 136 to 140 °C. Compound `Nc1cc(-n2cccn2)nc(-c2ccc(Br)o2)n1` registered a melting point of 221 to 222 °C. For the compound `CCCCCCC1=C(Br)C(O)(CO)NC1=O` (configuration not stated), the melting point fell in the range of 134 to 135 °C. `COc1ccc(N=Nc2ccc(O)c(C(=O)Nc3ccc4[nH]cnc4c3)c2)cc1` had a melting point of 274 °C. `CC(C)(C)c1ccc(-c2cc3ccc(C(=O)O)cc3[nH]2)cc1` gave a melting point of 297 °C. For the compound `COc1ccc(C(=O)Nc2ccc(C(C)(C)C(N)=O)cc2)cc1OC`, the melting point lay within 193 to 195 °C.

In turn, `CSc1sc(C(N)=O)c(C(C)C)c1-c1oncc1C` displayed a melting point of 105 °C.

The compound `COc1ccc(CN(CCN(C)C)c2cccc(/C=C/C(=O)O)n2)cc1` returned a melting point of 75 to 81 °C. Next, `CC(C)CCN1CCC2(CC1)CSC1=C(O2)c2ccccc2C(=O)C1=O`: 143 to 146 °C; `COc1cc(-c2nc3ccc(OCCN(C)C)cc3n2Cc2ccccc2C(F)(F)F)cc(OC)c1OC`: 151 °C; `CCCCOc1cc(Cl)c(OCCCC)cc1N`: 43 to 44 °C. The compound `C=CCOc1ccccc1S(=O)(=O)NC(=O)n1nc(SCCF)n(C2CC2)c1=O` displayed a melting point of 15 °C. `CCCCOC(=O)C(=O)Nc1nc2ccccc2s1` returned a melting point of 137 to 138 °C.

For the compound `CCn1c(=O)c2nc(C(=O)O)cn2c2ccccc21`, the melting point lay within 250 to 252 °C. `COc1cc2c(c3c1OC(C)(C)C3)C(c1ccccc1)=NC(CN1C(=O)c3ccccc3C1=O)C2` (configuration not stated) showed a melting point of 228 to 229 °C. With `CCOC(=O)CC(=O)CC(O)C=Cc1c(C)c(OCc2ccccc2)c(C)c2c1OC(C)(C)CC2` (configuration not stated), the melting point is 83 to 83.5 °C.

As to `O=C1N(N2CCOCC2)c2ccccc2C1(Cc1ccncc1)Cc1ccncc1`, the melting point lay within 200 to 203 °C. Regarding `NNC(=O)CC1(O)c2ccccc2C=Cc2ccccc21`, the melting point was 192 to 194 °C. As to `CCCCS(=O)(=O)Nc1ccc(Oc2cc(C)cc3cccnc23)cc1`, the melting point lay within 189 to 190 °C. `CCCCCCCCCCCCCCc1ccc(C(=O)CCCCC)c(O)c1` came in with a melting point of 44 to 45 °C.

For `COC(=O)c1ccc2nn(-c3cc(C(C)(C)CC(C)(C)C)cc(C(C)(C)c4ccccc4)c3O)nc2c1`, the melting point was in the range of 141 to 143 °C. Turning to `Clc1ccc(-c2onc3c(CBr)cccc23)c(Cl)c1`, the melting point lay in the range of 108 to 110 °C. The compound `CCOC(=O)c1ccc2n1Cc1ccccc1N(C(=O)c1ccc(NC(=O)c3ccc(Cl)cc3Cl)c(C)c1)C2` registered a melting point of 174 to 184 °C. To `COc1ccc([N+](=O)[O-])cc1NC(=O)CC(=O)C1(C)COC(C)(C)OC1` belongs 113 to 115 °C. For `COc1ccc2c(c1)[C@@]1(C(=O)O)CC=CC[C@H]1CC2` (relative stereo), the melting point came out at 125 °C. On to `O=C(O)c1ccc(SC(=O)c2ccc(O)c(C34CC5CC(CC(C5)C3)C4)c2)cc1`, for which the melting point lay in the range of 272 to 274 °C.

As to `NC(=O)c1[nH]c2ccc(C(O)(C(F)(F)F)C(F)(F)F)cc2c1-c1ccccc1`, the melting point was in the range of 220 to 224 °C. Next, `c1ccc(OCc2ccc3ccccc3n2)cc1`: 79.5 to 80.5 °C; `CC(C)O[Si](C)(CCl)c1ccc(-c2ccccc2)cc1` (configuration not stated): 35 to 38 °C. Next, `COC(=O)Nc1cnc2ccc(Sc3ccccc3)cn12`: 211 to 215 °C.
